Experimental data: US9006237B2, “Fused pyrazine compounds useful for the treatment of degenerative and inflammatory diseases” (Janssen Pharmaceutica NV, priority 2007, dated 2015)

Each molecule was assayed against T1, MAPKAPK5 (Homo sapiens, UniProt Q8IW41) (assay: MAPKAP-K5 assay (FlashPlate, 33P-ATP)). Conditions: 0.6 μM ATP; 3 μM peptide substrate; room temperature 30 minutes.
T1 sequence (Q8IW41 1-471 isoform Q8IW41-2): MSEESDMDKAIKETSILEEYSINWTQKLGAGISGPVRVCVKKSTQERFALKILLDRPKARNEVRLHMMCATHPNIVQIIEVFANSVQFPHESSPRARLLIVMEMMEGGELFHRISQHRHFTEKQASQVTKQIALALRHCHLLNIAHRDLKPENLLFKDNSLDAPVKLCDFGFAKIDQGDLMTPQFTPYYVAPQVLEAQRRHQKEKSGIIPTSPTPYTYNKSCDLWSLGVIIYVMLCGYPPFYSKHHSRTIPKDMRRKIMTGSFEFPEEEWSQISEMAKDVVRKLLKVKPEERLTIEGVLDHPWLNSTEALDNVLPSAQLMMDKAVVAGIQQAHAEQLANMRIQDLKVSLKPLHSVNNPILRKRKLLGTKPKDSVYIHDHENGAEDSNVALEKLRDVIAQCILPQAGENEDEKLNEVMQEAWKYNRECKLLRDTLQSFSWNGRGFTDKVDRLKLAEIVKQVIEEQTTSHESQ
Assay type: biochemical
Protocol: 3 μM MAPKAP-K5 peptide substrate
Work on O=C1NCc2cc(-c3cnc(Nc4nc(CN5CCOCC5)cs4)c4nccn34)ccc21 [Example 1, 5-(8-(4-(morpholinomethyl)thiazol-2-ylamino)imidazo[1,2-a]pyrazin-5-yl)isoindolin-1-one] yielded an IC50 of 101 to 500 nM.
For c1nc2c(Nc3nc(CN4CCOCC4)cs3)ncc(-c3cn[nH]c3)n2n1 [Example 3, N-(5-(1H-pyrazol-4-yl)-[1,2,4]triazolo[1,5-a]pyrazin-8-yl)-4-(morpholinomethyl)thiazol-2-amine], the IC50 was > 1000 nM.
Molecule NC(=O)c1cc(-c2cnc(Nc3nc(CN4CCCCC4)cs3)c3ncnn23)co1 [Example 4, 4-(8-(4-(piperidin-1-ylmethyl)thiazol-2-ylamino)-[1,2,4]triazolo[1,5-a]pyrazin-5-yl)furan-2-carboxamide] has an IC50 of 1 to 100 nM.
O=C1NCc2cc(-c3cnc(Nc4nccs4)c4nccn34)ccc21 [Example 6, 5-(8-(thiazol-2-ylamino)imidazo[1,2-a]pyrazin-5-yl)isoindolin-1-one] showed an IC50 of 101 to 500 nM.
In the case of c1csc(Nc2ncc(-c3cn[nH]c3)n3ccnc23)n1 [Example 7, N-(5-(1H-pyrazol-4-yl)imidazo[1,2-a]pyrazin-8-yl)thiazol-2-amine], the IC50 is reported as > 1000 nM.
O=C1NCc2cc(-c3cnc(Nc4nc(CN5CCCCC5)cs4)c4nccn34)ccc21 [Example 9, 5-(8-(4-(piperidin-1-ylmethyl)thiazol-2-ylamino)imidazo[1,2-a]pyrazin-5-yl)isoindolin-1-one] gave an IC50 of 1 to 100 nM.
With Cc1nc(Nc2ncc(-c3ccc4c(c3)CNC4=O)n3ccnc23)sc1C(=O)N(C)C [Example 10, N,N,4-trimethyl-2-(5-(1-oxoisoindolin-5-yl)imidazo[1,2-a]pyrazin-8-ylamino)thiazole-5-carboxamide] the IC50 was 101 to 500 nM.
Molecule Cc1cnc(Nc2ncc(-c3ccc4c(c3)CNC4=O)n3ccnc23)s1 [Example 11, 5-(8-(5-methylthiazol-2-ylamino)imidazo[1,2-a]pyrazin-5-yl)isoindolin-1-one] has an IC50 of 501 to 1000 nM.
O=C1NCc2cc(-c3cnc(Nc4nc5c(s4)CCC5)c4nccn34)ccc21 [Example 12, 5-(8-(5,6-dihydro-4H-cyclopenta[d]thiazol-2-ylamino)imidazo[1,2-a]pyrazin-5-yl)isoindolin-1-one] was tested, and the IC50 was > 1000 nM.
With O=C1NCc2cc(-c3cnc(Nc4ncc(C(=O)N5CCOCC5)s4)c4nccn34)ccc21 [Example 13, 5-(8-(5-(morpholine-4-carbonyl)thiazol-2-ylamino)imidazol[1,2-a]pyrazin-5-yl)isoindolin-1-one] the IC50 was 501 to 1000 nM.
Molecule O=C1NCc2cc(-c3cnc(Nc4nnc(CCN5CCCCC5)s4)c4nccn34)ccc21 [Example 14, 5-(8-(5-(2-(piperidin-1-yl)ethyl)-1,3,4-thiadiazol-2-ylamino)imidazo[1,2-a]pyrazin-5-yl)isoindolin-1-one] has an IC50 of 501 to 1000 nM.
For c1cn2c(-c3cn[nH]c3)cnc(Nc3ncc(CN4CCOCC4)s3)c2n1 [Example 15, N-(5-(1H-pyrazol-4-yl)imidazo[1,2-a]pyrazin-8-yl)-5-(morpholinomethyl)thiazol-2-amine], the IC50 was > 1000 nM.
O=C1NCc2cc(-c3cnc(Nc4ncc(CN5CCOCC5)s4)c4nccn34)ccc21 [Example 16, 5-(8-(5-(morpholinomethyl)thiazol-2-ylamino)imidazo[1,2-a]pyrazin-5-yl)isoindolin-1-one] showed an IC50 of 101 to 500 nM.
For CN(C)Cc1cnc(Nc2ncc(-c3cn[nH]c3)n3ccnc23)s1 [Example 17, N-(5-(1H-pyrazol-4-yl)imidazo[1,2-a]pyrazin-8-yl)-5-((dimethylamino)methyl)thiazol-2-amine], the IC50 was > 1000 nM.
Work on CC(C)N1CCN(Cc2cnc(Nc3ncc(-c4ccc5c(c4)CNC5=O)n4ccnc34)s2)CC1 [Example 18, 5-(8-(5-((4-isopropylpiperazin-1-yl)methyl)thiazol-2-ylamino)imidazo[1,2-a]pyrazin-5-yl)isoindolin-1-one] yielded an IC50 of 101 to 500 nM.
In the case of O=C1NCc2cc(-c3cnc(Nc4nncs4)c4nccn34)ccc21 [Example 19, 5-(8-(1,3,4-thiadiazol-2-ylamino)imidazo[1,2-a]pyrazin-5-yl)isoindolin-1-one], the IC50 is reported as > 1000 nM.
Work on CN1CCN(c2nnc(Nc3ncc(-c4ccc5c(c4)CNC5=O)n4ccnc34)s2)CC1 [Example 20, 5-(8-(5-(4-methylpiperazin-1-yl)-1,3,4-thiadiazol-2-ylamino)imidazo[1,2-a]pyrazin-5-yl)isoindolin-1-one] yielded an IC50 of 501 to 1000 nM.
In the case of CC(C)N1CCN(C(=O)c2cnc(Nc3ncc(-c4cn[nH]c4)n4ccnc34)s2)CC1 [Example 23], the IC50 is reported as > 1000 nM.
With O=C1NCc2cc(-c3cnc(Nc4ncc(CN5CCCCC5)s4)c4nccn34)ccc21 [Example 24, 5-(8-(5-(piperidin-1-ylmethyl)thiazol-2-ylamino)imidazo[1,2-a]pyrazin-5-yl)isoindolin-1-one] the IC50 was > 1000 nM.
In the case of c1nc2c(Nc3nc(CN4CCCCC4)cs3)ncc(-c3cn[nH]c3)n2n1 [Example 25, N-(5-(1H-pyrazol-4-yl)-[1,2,4]triazolo[1,5-a]pyrazin-8-yl)-4-(piperidin-1-ylmethyl)thiazol-2-amine], the IC50 is reported as > 1000 nM.
